Results reported in the NIST ThermoML archive (doi:10.1016/j.jct.2006.03.009).

Assay: cn = amount concentration of the nth substance listed, in mol/dm3
Conditions: Liquid; for mass density: 7 kPa, Pycnometric method; for speed of sound: 101 kPa

[Cl-].[K+] [potassium chloride] + O
c1 = 1.5
Conditions	mass density [kg/m3]	speed of sound [m/s]
303.15 K	1061.4	1584
308.15 K	1059.7	1590.4
313.15 K	1057.8	1595.8
318.15 K	1055.6	1601.6
323.15 K	1053.3	1606.2

O=[N+]([O-])[O-].[K+] [potassium nitrate] + O
c1 = 1
Conditions	mass density [kg/m3]	speed of sound [m/s]
303.15 K	1052.9	1541.8
308.15 K	1051.1	1550.2
313.15 K	1049	1557.4
318.15 K	1046.7	1563.6
323.15 K	1044.2	1568.4

O=S(=O)([O-])[O-].[K+].[K+] [potassium sulfate] + O
c1 = 0.5
Conditions	mass density [kg/m3]	speed of sound [m/s]
303.15 K	1059.3	1571.2
308.15 K	1057.9	1578.8
313.15 K	1056.1	1587.6
318.15 K	1054.2	1592.6
323.15 K	1051.9	1597.6
